This is an account of results in PMC11221189, “Gut microbiota DPP4-like enzymes are increased in type-2 diabetes and contribute to incretin inactivation” (Genome Biology, 2024).

The target of experiment [1] is pmDPP4Δ23 (Parabacteroides merdae, UniProt A0AA37KD06). It counts as biochemical. The settings on record: for EC50 pmDPP4: gpPNA substrate, non-linear fit, sitagliptin and linagliptin data did not fit (R^2 ND); for Effect on pmDPP4Δ23 hydrolytic activity (in words): gpPNA hydrolysis.
For experiment [2], the system named is T1, pmDPP4Δ23 (headed pmDPP4 in Table 1 and Table S1).
T1 construct: N-terminal 6 x His tag; expressed from pET15b in E. coli BL21-DE3; dimer in solution
As to the kind of experiment: Colorimetric steady-state kinetics of gpPNA hydrolysis (0.31 to 2.5 mM) without inhibitor, 50 mM Tris-HCl pH 8.3, 37 °C, 380 nm, Lineweaver-Burk analysis. It is filed as biochemical. Conditions: SD, n = 3; read-out: Km (mM), inhibitor 0 nM. How it is done:
(§1) The hydrolytic activity of the bacterial DPP4 enzyme was measured using Gly-Pro p-nitroanilide hydrochloride (gpPNA) (Sigma), as described for assessing hsDPP4 activity. […] Briefly, 20 µL of each cell-free supernatant was placed in triplicate in a flat 96-well plate. Two hundred microliters of the respective PNA solutions were plated in duplicate to obtain the standard curve. […] The enzymatic activity ([PNA generated (nM) / hydrolysis time (min)] / pmole enzyme) was quantified between 10 and 30 min of incubation time (linear kinetics). Three independent experiments with different purified protein batches were performed. The same protocol was followed for the murine samples (cecal content and plasma from the portal vein). In the case of the cecal content, the values of DPP4 activity were normalized by the amount of protein, quantified by the Bradford method (Bio-Rad, Hercules, CA).
Figure S3. Gliptin inhibition kinetics on pmDPP4Δ23. Lineweaver-Burk double-reciprocal (1/V and 1/S) plots showing pmDPP4Δ23 (bottom panels) and hsDPP4 (top panels) […]
(100 nM, burgundy lines) concentrations. The apparent Km was calculated respectively from inhibitor-associated data points using linear regression to find intersection point at the y-axis (1/S). V, reaction velocity (nmol PNA min-1 pmole enzyme-1); S, substrate concentration (mM gpPNA).
(1 picture or pasted object on this page, not shown here) […]

For experiment [3] the test system is unchanged. Kind of experiment: Overall Km for gpPNA without inhibitor, from the colorimetric kinetics at pH 8.3 and 37 °C. The settings on record: read-out: overall estimated Km. It is filed as biochemical. How it is done: as §1
Experiment [4] has as its system depression-like behavior. Conditions: obesogenic diet; cited from earlier work.

What is called Km is the substrate concentration at which the rate is half of its maximum.

Molecules are shown by their SMILES. Where “and” joins values, the source holds several entries; their conditions need not be identical. Identical values can stand only once. Entries after “also recorded” stand apart in the source; their conditions may differ. Peptide text beside a SMILES is read from it. * marks the point of attachment. pNA = O=[N+]([O-])c1ccc(N*)cc1

Sequence of pmDPP4Δ23 (A0AA37KD06 entry or part of it, stated change not applied): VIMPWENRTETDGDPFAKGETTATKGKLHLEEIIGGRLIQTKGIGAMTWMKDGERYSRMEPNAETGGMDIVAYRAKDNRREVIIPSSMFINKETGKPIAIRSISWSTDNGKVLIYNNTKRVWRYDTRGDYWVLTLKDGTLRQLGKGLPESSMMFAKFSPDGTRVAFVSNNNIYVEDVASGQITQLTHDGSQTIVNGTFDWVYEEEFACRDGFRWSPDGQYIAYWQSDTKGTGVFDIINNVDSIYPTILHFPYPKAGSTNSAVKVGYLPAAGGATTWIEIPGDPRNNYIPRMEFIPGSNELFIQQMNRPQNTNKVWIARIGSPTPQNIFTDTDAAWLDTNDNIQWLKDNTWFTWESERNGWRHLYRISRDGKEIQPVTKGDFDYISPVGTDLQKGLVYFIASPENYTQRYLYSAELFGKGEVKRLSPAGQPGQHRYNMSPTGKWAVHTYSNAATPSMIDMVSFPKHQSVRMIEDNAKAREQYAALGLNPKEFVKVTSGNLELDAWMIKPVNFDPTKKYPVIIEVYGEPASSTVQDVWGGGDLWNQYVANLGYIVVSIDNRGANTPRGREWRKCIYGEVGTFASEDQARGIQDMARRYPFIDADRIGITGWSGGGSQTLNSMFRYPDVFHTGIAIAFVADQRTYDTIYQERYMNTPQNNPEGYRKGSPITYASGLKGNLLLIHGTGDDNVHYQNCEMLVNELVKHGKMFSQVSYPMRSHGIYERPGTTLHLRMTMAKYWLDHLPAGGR

For the molecule `N#C[C@@H]1C[C@@H]2C[C@@H]2N1C(=O)[C@@H](N)C12CC3CC(CC(O)(C3)C1)C2` [Saxagliptin, saxagliptin], in experiment [1], the “EC50 pmDPP4” value is “nanomolar range”.

For `NCC(=O)N1CCC[C@H]1C(=O)Nc1ccc([N+](=O)[O-])cc1` [gpPNA, Gly-Pro p-nitroanilide] (H-Gly-Pro-pNA), the Km in experiment [2] was 1.6 mM and 1.79 mM and 1.66 mM and 1.46 mM; in experiment [3], 1630 µM.

On to `N[C@@H](CC(=O)N1CCn2c(nnc2C(F)(F)F)C1)Cc1cc(F)c(F)cc1F` [Sitagliptin, sitagliptin], for which the “Effect on pmDPP4Δ23 hydrolytic activity (in words)” value in experiment [1] is reported as “not inhibited; also recorded: almost null effect; also recorded: minimally inhibited”. In addition, the “Depression-like behavior associated with increased systemic DPP4 activity” value in experiment [4] is reported as “counteracted”.

For the molecule `CC#CCn1c(N2CCC[C@@H](N)C2)nc2c1c(=O)n(Cc1nc(C)c3ccccc3n1)c(=O)n2C` [Linagliptin, linagliptin], the “Effect on pmDPP4Δ23 hydrolytic activity (in words)” value in experiment [1] is “not inhibited; also recorded: almost null effect; also recorded: minimally inhibited”.

For the molecule `N#C[C@@H]1CCCN1C(=O)CNC12CC3CC(CC(O)(C3)C1)C2` [Vildagliptin, vildagliptin], the “EC50 pmDPP4” value in experiment [1] is recorded as “nanomolar range”.
